The results in this text go back to patent US11919901B2 (Syndax Pharmaceuticals, Inc., priority 2021, dated 2024).

The target of series [1] is hERG (Homo sapiens (Human), UniProt Q12809). Put plainly: Patch clamp assay (hERG tail currents, whole-cell). It is filed as cell-based. The following applies: hERG transfected HEK 293 cells; for hERG % Remaining 10 μM: 10 μM compound; for hERG % Remaining 30 μM: 30 μM compound.
Series [2] has as its target Menin-MLL (Homo sapiens (Human), UniProt O00255). The series is described as follows: Determination of binding constants (Ki) to Menin-MLL (HTRF). The following applies: HTRF, 0.25 nM H-FL-Menin, 3.2 nM FITC-MLL-4-43, 24 hr incubation; for Ki: read-out: Menin-MLL Ki HTRF Assay: Ki. For orientation: In TR-FRET formats the signal depends on donor and acceptor labels being close together.

For orientation: Ki means the dissociation constant of the complex between target and ligand, obtained from inhibition or displacement. As usually defined, the IC50 is the concentration that gives 50% inhibition. By EC50 is commonly meant the midpoint of the concentration-response curve.

Structures are written as SMILES.

Sequence of hERG (Q12809 whole entry): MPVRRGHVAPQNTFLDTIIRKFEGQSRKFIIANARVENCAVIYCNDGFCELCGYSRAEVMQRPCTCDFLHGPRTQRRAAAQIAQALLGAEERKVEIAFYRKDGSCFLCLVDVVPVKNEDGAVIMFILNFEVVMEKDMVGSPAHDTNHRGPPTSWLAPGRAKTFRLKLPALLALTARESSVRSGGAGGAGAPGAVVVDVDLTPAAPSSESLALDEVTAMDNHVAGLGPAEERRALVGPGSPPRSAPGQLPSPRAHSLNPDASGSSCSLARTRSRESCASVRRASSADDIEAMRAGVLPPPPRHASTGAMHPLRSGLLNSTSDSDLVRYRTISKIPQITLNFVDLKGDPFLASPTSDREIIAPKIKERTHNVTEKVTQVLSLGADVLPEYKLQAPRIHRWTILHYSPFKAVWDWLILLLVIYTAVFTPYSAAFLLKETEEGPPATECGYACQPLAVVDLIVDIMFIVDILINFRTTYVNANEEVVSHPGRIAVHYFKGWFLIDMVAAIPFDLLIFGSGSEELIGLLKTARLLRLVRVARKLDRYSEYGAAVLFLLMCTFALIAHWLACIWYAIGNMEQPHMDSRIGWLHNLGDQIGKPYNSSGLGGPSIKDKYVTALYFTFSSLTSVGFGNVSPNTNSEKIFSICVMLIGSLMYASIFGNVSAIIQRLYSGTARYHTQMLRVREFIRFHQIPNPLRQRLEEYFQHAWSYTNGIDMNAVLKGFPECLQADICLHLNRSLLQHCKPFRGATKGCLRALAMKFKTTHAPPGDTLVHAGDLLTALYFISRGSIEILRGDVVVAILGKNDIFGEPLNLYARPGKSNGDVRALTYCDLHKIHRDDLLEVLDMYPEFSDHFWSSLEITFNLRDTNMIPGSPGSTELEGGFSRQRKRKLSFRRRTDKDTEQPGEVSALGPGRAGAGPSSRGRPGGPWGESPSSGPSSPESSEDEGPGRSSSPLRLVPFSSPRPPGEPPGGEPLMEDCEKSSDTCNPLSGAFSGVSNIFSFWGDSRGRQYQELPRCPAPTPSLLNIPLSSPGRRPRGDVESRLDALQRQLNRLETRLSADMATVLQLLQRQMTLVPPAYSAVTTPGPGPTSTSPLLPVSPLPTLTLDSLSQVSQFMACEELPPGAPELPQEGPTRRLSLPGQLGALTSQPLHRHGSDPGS
Sequence of Menin-MLL (O00255 whole entry): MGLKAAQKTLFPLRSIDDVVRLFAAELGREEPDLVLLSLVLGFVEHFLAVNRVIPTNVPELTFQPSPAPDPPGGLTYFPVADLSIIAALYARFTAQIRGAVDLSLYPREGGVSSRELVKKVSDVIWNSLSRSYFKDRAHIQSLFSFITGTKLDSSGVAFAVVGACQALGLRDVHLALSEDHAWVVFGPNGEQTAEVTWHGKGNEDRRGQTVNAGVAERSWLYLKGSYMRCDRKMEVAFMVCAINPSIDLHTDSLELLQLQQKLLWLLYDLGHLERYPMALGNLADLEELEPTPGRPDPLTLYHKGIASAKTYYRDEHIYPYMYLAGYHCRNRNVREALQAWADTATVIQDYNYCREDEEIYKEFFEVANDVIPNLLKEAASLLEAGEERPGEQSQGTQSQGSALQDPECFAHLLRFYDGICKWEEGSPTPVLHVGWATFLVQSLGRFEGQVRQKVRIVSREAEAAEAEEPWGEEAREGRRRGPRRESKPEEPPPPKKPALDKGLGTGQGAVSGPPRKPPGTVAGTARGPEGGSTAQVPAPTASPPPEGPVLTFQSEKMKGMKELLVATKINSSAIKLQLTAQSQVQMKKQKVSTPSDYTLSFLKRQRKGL

In the case of `CC(C)N(C(=O)c1cc(F)ccc1Oc1cncnc1N1CC2(CCN(C[C@@H]3CC[C@@H](NS(=O)(=O)c4cnn(C)c4Cl)CO3)CC2)C1)C(C)C` [Compound 82, 2-((4-(7-(((2S,5R)-5-((5-Chloro-1-methyl-1H-pyrazole)-4-sulfonamido)tetrahydro-2H-pyran-2-yl)methyl)-2,7-diazaspiro[3.5]nonan-2-yl)pyrimidin-5-yl)oxy)-5-fluoro-N,N-diisopropylbenzamide], in series [1], the “hERG % Remaining 10 μM” value is “++ (“++” means ≥33% and <66%)”; the “hERG % Remaining 30 μM” value is “+ (“+” means <33%)”. Moreover, the inhibitory constant (Ki) in series [2] was less than 1 nM.
For `CC(C)N(C(=O)c1cc(F)ccc1Oc1cncnc1N1CC2(CCN(C[C@@H]3CC[C@@H](NS(=O)(=O)c4cnn(C5CC5)c4)CO3)CC2)C1)C(C)C` [Compound 83, 2-((4-(7-(((2S,5R)-5-((1-Cyclopropyl-1H-pyrazole)-4-sulfonamido)tetrahydro-2H-pyran-2-yl)methyl)-2,7-diazaspiro[3.5]nonan-2-yl)pyrimidin-5-yl)oxy)-5-fluoro-N,N-diisopropylbenzamide], in series [1], the “hERG % Remaining 10 μM” value is given as “+++ (“+++” means ≥66%)”; the “hERG % Remaining 30 μM” value is “++ (“++” means ≥33% and <66%)”. The Ki in series [2] is less than 1 nM.
As for `Cc1ncc(S(=O)(=O)N[C@@H]2CC[C@@H](CN3CCC4(CC3)CN(c3ncncc3Oc3ccc(F)cc3C(=O)N(C(C)C)C(C)C)C4)OC2)s1` [Compound 84, 5-Fluoro-N,N-diisopropyl-2-((4-(7-(((2S,5R)-5-((2-methylthiazole)-5-sulfonamido)tetrahydro-2H-pyran-2-yl)methyl)-2,7-diazaspiro[3.5]nonan-2-yl)pyrimidin-5-yl)oxy)benzamide], in series [1], the “hERG % Remaining 10 μM” value was “++ (“++” means ≥33% and <66%)”; the “hERG % Remaining 30 μM” value is on record as “+ (“+” means <33%)”. In series [2], the Ki is less than 1 nM.
As for `CC(C)N(C(=O)c1cc(F)ccc1Oc1cncnc1N1CC2(CCN(C[C@@H]3CC[C@@H](NS(=O)(=O)c4cnn(C(F)F)c4)CO3)CC2)C1)C(C)C` [Compound 85, 2-((4-(7-(((2S,5R)-5-((1-(Difluoromethyl)-1H-pyrazole)-4-sulfonamido)tetrahydro-2H-pyran-2-yl)methyl)-2,7-diazaspiro[3.5]nonan-2-yl)pyrimidin-5-yl)oxy)-5-fluoro-N,N-diisopropylbenzamide], in series [1], the “hERG % Remaining 10 μM” value is “++ (“++” means ≥33% and <66%)”; the “hERG % Remaining 30 μM” value was “+ (“+” means <33%)”. In addition, the Ki in series [2] is less than 1 nM.
Regarding `CC(C)N(C(=O)c1cc(F)ccc1Oc1cncnc1N1CC2(CCN(C[C@@H]3CC[C@@H](NS(=O)(=O)c4cnn(C)c4)CO3)CC2)C1)C(C)C` [Compound 86, 5-Fluoro-N,N-diisopropyl-2-((4-(7-(((2S,5R)-5-((1-methyl-1H-pyrazole)-4-sulfonamido)tetrahydro-2H-pyran-2-yl)methyl)-2,7-diazaspiro[3.5]nonan-2-yl)pyrimidin-5-yl)oxy)benzamide], in series [1], the “hERG % Remaining 10 μM” value is “+++ (“+++” means ≥66%)”, the “hERG % Remaining 30 μM” value is “+++ (“+++” means ≥66%)” and the IC50 is no less than 50000 nM. The Ki in series [2] is less than 1 nM.
Take `CC(C)N(C(=O)c1cc(F)ccc1Oc1cncnc1N1CC2(CCN(C[C@@H]3CC[C@@H](NS(=O)(=O)c4ccn(C)n4)CO3)CC2)C1)C(C)C` [Compound 87, 5-Fluoro-N,N-diisopropyl-2-((4-(7-(((2S,5R)-5-((1-methyl-1H-pyrazole)-3-sulfonamido)tetrahydro-2H-pyran-2-yl)methyl)-2,7-diazaspiro[3.5]nonan-2-yl)pyrimidin-5-yl)oxy)benzamide]: the “hERG % Remaining 30 μM” value in series [1] is “+++ (“+++” means ≥66%)”. Also, the Ki in series [2] was less than 1 nM.
With `CC(C)N(C(=O)c1cc(F)ccc1Oc1cncnc1N1CC2(CCN(C[C@@H]3CC[C@@H](NS(=O)(=O)N4CCC4)CO3)CC2)C1)C(C)C` [Compound 88, 2-((4-(7-(((2S,5R)-5-(Azetidine-1-sulfonamido)tetrahydro-2H-pyran-2-yl)methyl)-2,7-diazaspiro[3.5]nonan-2-yl)pyrimidin-5-yl)oxy)-5-fluoro-N,N-diisopropylbenzamide], the “hERG % Remaining 30 μM” value in series [1] is “+++ (“+++” means ≥66%)”. Further, the Ki in series [2] is less than 1 nM.
On to `CC(C)N(C(=O)c1cc(F)ccc1Oc1cncnc1N1CC2(CCN(C[C@@H]3CC[C@@H](NS(=O)(=O)N(C)C(C)C)CO3)CC2)C1)C(C)C` [Compound 89, 5-Fluoro-N,N-diisopropyl-2-((4-(7-(((2S,5R)-5-((N-isopropyl-N-methylsulfamoyl)amino)tetrahydro-2H-pyran-2-yl)methyl)-2,7-diazaspiro[3.5]nonan-2-yl)pyrimidin-5-yl)oxy)benzamide], for which the “hERG % Remaining 30 μM” value in series [1] is “++ (“++” means ≥33% and <66%)”. The Ki in series [2] is less than 1 nM.
In the case of `CC(C)N(C(=O)c1cc(F)ccc1Oc1cncnc1N1CC2(CCN(C[C@@H]3CC[C@@H](NS(N)(=O)=O)CO3)CC2)C1)C(C)C` [Compound 90, 5-Fluoro-N,N-diisopropyl-2-((4-(7-(((2S,5R)-5-(sulfamoylamino)tetrahydro-2H-pyran-2-yl)methyl)-2,7-diazaspiro[3.5]nonan-2-yl)pyrimidin-5-yl)oxy)benzamide], in series [1], the “hERG % Remaining 10 μM” value is on record as “+++ (“+++” means ≥66%)” and the “hERG % Remaining 30 μM” value is given as “+++ (“+++” means ≥66%)”. Moreover, the Ki in series [2] is less than 1 nM.
Take `Cc1nc(S(=O)(=O)N[C@@H]2CC[C@@H](CN3CCC4(CC3)CN(c3ncncc3Oc3ccc(F)cc3C(=O)N(C(C)C)C(C)C)C4)OC2)co1` [Compound 91, 5-Fluoro-N,N-diisopropyl-2-((4-(7-(((2S,5R)-5-((2-methyloxazole)-4-sulfonamido)tetrahydro-2H-pyran-2-yl)methyl)-2,7-diazaspiro[3.5]nonan-2-yl)pyrimidin-5-yl)oxy)benzamide]: the “hERG % Remaining 30 μM” value in series [1] is “++ (“++” means ≥33% and <66%)”. Also, in series [2], the Ki is less than 1 nM.
With `CC(C)N(C(=O)c1cc(F)ccc1Oc1cncnc1N1CC2(CCN(C[C@@H]3CC[C@@H](NS(=O)(=O)N(C)C)CO3)CC2)C1)C1CC1` [Compound 93, N-Cyclopropyl-2-((4-(7-(((2S,5R)-5-((N,N-dimethylsulfamoyl)amino)tetrahydro-2H-pyran-2-yl)methyl)-2,7-diazaspiro[3.5]nonan-2-yl)pyrimidin-5-yl)oxy)-5-fluoro-N-isopropylbenzamide], in series [1] (1 μM compound), the “hERG % Remaining 1 μM” value is “+++ (“+++” means ≥66%)”. For the same compound, the “hERG % Remaining 3 μM” value in series [1] (3 μM compound) is “+++ (“+++” means ≥66%)”. In addition, in series [1], the “hERG % Remaining 10 μM” value is “+++ (“+++” means ≥66%)”; the “hERG % Remaining 30 μM” value was “++ (“++” means ≥33% and <66%)”; the IC50 is no less than 50000 nM. Also, the “hERG % Remaining 100 μM” value in series [1] (100 μM compound) is “+ (“+” means <33%)”. In series [2], the EC50 was less than 50 nM and the Ki was less than 1 nM.
Consider `CC(C)N(CC(F)F)C(=O)c1cc(F)ccc1Oc1cncnc1N1CC2(CCN(C[C@@H]3CC[C@@H](NS(=O)(=O)N4CCOCC4)CO3)CC2)C1` [Compound 94, N-(2,2-Difluoroethyl)-5-fluoro-N-isopropyl-2-((4-(7-(((2S,5R)-5-(morpholine-4-sulfonamido)tetrahydro-2H-pyran-2-yl)methyl)-2,7-diazaspiro[3.5]nonan-2-yl)pyrimidin-5-yl)oxy)benzamide], for which, in series [1], the “hERG % Remaining 10 μM” value is “+++ (“+++” means ≥66%)”; the “hERG % Remaining 30 μM” value is “++ (“++” means ≥33% and <66%)”. In series [2], the EC50 was less than 50 nM and the inhibition constant (Ki) is less than 1 nM.
Take `CC(C)N(CC(F)F)C(=O)c1cc(F)ccc1Oc1cncnc1N1CC2(CCN(C[C@@H]3CC[C@@H](NS(=O)(=O)N(C)C)CO3)CC2)C1` [Compound 95, N-(2,2-Difluoroethyl)-2-((4-(7-(((2S,5R)-5-((N,N-dimethylsulfamoyl)amino)tetrahydro-2H-pyran-2-yl)methyl)-2,7-diazaspiro[3.5]nonan-2-yl)pyrimidin-5-yl)oxy)-5-fluoro-N-isopropylbenzamide]: in series [1], the “hERG % Remaining 10 μM” value is reported as “+++ (“+++” means ≥66%)”; the “hERG % Remaining 30 μM” value was “++ (“++” means ≥33% and <66%)”; the IC50 was less than 25000 nM. In addition, in series [2], the EC50 was less than 50 nM and the Ki is less than 1 nM.
As to `CCN(CC)S(=O)(=O)N[C@@H]1CC[C@@H](CN2CCC3(CC2)CN(c2ncncc2Oc2ccc(F)cc2C(=O)N(CC(F)F)C(C)C)C3)OC1` [Compound 97, 2-((4-(7-(((2S,5R)-5-((N,N-Diethylsulfamoyl)amino)tetrahydro-2H-pyran-2-yl)methyl)-2,7-diazaspiro[3.5]nonan-2-yl)pyrimidin-5-yl)oxy)-N-(2,2-difluoroethyl)-5-fluoro-N-isopropylbenzamide], in series [1], the “hERG % Remaining 10 μM” value is “++ (“++” means ≥33% and <66%)”; the “hERG % Remaining 30 μM” value is “+ (“+” means <33%)”. For the same compound, in series [2], the EC50 was less than 50 nM and the Ki is less than 1 nM.
In the case of `CC(C)N(CC(F)F)C(=O)c1cc(F)ccc1Oc1cncnc1N1CC2(CCN(C[C@@H]3CC[C@@H](NS(=O)(=O)N4CCC4)CO3)CC2)C1` [Compound 99, 2-((4-(7-(((2S,5R)-5-(Azetidine-1-sulfonamido)tetrahydro-2H-pyran-2-yl)methyl)-2,7-diazaspiro[3.5]nonan-2-yl)pyrimidin-5-yl)oxy)-N-(2,2-difluoroethyl)-5-fluoro-N-isopropylbenzamide], in series [1], the “hERG % Remaining 10 μM” value was “+++ (“+++” means ≥66%)”; the “hERG % Remaining 30 μM” value is “++ (“++” means ≥33% and <66%)”. The Ki in series [2] was less than 1 nM.
